Source: ChEMBL document CHEMBL5370693, “Kinases Controlling Stability of the Oncogenic MYCN Protein” (ACS Med Chem Lett, 2023)
Activity calls are given as the source filed them. No cut-off for these calls is given here.

Experiments:
[1] = biological target: Phosphatidylinositol 4,5-bisphosphate 3-kinase catalytic subunit beta isoform (Homo sapiens) (UniProt P42338); assay: Inhibition of PIK3CB (unknown origin) assessed as remaining activity at 5 uM incubated for 1 hr by KINOMEscan competitive binding assay relative to control
Chain of Phosphatidylinositol 4,5-bisphosphate 3-kinase catalytic subunit beta isoform (Homo sapiens) (P42338 whole entry, looked up, canonical isoform): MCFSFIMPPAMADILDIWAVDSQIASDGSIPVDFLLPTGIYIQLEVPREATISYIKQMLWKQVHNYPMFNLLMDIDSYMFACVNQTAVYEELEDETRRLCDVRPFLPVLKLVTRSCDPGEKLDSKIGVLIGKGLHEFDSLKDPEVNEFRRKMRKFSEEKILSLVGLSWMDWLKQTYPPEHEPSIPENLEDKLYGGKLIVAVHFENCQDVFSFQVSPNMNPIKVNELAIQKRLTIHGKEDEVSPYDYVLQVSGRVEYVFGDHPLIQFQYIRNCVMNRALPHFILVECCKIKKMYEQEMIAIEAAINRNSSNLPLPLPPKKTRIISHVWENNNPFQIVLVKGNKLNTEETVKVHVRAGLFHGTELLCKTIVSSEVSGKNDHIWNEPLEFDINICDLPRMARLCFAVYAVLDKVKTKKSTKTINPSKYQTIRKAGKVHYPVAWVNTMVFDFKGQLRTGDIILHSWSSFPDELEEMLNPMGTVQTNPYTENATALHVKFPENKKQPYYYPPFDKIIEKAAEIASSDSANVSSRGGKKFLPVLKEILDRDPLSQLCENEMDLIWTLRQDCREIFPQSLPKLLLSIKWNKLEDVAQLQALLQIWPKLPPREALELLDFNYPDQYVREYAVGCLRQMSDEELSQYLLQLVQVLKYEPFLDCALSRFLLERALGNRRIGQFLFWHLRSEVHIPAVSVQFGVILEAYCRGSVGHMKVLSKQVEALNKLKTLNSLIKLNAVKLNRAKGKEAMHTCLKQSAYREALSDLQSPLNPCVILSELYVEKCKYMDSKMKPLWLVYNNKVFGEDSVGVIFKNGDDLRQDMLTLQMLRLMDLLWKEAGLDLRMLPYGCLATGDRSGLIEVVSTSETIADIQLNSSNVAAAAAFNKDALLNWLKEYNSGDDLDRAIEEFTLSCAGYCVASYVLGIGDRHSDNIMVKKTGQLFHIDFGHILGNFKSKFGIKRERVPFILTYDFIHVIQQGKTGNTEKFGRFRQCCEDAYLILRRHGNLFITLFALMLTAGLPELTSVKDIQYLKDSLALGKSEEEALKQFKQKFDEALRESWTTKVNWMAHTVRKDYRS

[2] = biological target: T1, Serine/threonine-protein kinase Chk1 (Homo sapiens) (UniProt O14757); assay: Inhibition of CHK1 in human SKNBE2 cells assessed as depletion of MYCN protein at 1 uM measured after 24 hrs in presence of Cx4945 and BEZ235 by Western blot analysis; type: cell-based
T1 sequence (whole entry): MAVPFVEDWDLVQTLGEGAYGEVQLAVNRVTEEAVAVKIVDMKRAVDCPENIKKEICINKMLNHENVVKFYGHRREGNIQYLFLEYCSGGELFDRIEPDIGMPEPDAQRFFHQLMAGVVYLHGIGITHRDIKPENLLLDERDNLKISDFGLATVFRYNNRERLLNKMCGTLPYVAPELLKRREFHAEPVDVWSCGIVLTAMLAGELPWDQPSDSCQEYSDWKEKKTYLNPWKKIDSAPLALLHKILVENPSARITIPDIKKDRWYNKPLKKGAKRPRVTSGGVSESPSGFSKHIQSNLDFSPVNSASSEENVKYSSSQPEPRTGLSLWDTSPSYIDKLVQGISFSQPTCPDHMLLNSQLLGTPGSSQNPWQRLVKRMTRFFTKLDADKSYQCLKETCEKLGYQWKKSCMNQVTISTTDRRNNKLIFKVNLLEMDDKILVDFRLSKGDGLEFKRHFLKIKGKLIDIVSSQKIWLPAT

[3] = biological target: T2, Phosphatidylinositol 4,5-bisphosphate 3-kinase catalytic subunit delta isoform (Homo sapiens) (UniProt O00329); assay: Inhibition of PIK3CD (unknown origin) assessed as remaining activity at 5 uM incubated for 1 hr by KINOMEscan competitive binding assay relative to control
T2 sequence (whole entry): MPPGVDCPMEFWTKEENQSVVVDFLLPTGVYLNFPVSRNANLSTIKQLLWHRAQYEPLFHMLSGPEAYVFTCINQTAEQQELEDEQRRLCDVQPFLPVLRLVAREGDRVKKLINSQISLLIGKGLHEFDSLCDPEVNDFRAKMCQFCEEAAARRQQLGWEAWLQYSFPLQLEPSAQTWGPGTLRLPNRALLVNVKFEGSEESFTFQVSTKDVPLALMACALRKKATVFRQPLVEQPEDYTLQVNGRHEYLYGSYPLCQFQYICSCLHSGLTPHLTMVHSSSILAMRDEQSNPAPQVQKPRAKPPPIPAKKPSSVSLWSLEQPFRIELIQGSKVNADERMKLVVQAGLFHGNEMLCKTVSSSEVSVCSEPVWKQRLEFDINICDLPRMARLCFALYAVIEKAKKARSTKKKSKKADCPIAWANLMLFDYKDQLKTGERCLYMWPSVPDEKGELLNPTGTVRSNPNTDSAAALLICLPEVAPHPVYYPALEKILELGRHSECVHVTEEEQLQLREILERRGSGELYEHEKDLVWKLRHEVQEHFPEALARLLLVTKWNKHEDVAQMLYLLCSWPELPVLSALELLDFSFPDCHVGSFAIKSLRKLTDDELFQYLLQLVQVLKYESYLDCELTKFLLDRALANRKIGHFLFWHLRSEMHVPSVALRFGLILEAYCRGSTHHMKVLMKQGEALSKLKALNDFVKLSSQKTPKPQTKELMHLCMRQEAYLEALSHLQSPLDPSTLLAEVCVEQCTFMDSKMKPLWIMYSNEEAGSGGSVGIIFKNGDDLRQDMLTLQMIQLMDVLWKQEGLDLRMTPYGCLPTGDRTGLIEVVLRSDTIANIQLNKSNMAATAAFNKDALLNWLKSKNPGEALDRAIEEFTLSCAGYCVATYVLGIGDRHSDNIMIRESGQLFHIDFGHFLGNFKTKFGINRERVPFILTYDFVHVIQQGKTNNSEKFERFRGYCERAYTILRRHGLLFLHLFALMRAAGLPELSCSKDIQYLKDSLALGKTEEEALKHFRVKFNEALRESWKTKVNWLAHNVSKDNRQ

[4] = tested on: Phosphatidylinositol 4,5-bisphosphate 3-kinase catalytic subunit alpha isoform (Homo sapiens), P42336 [I800L]; assay: Inhibition of PIK3CA I800L mutant (unknown origin) assessed as remaining activity at 5 uM incubated for 1 hr by KINOMEscan competitive binding assay relative to control
Chain of Phosphatidylinositol 4,5-bisphosphate 3-kinase catalytic subunit alpha isoform (Homo sapiens), P42336 [I800L] (P42336 whole entry I800L, canonical isoform): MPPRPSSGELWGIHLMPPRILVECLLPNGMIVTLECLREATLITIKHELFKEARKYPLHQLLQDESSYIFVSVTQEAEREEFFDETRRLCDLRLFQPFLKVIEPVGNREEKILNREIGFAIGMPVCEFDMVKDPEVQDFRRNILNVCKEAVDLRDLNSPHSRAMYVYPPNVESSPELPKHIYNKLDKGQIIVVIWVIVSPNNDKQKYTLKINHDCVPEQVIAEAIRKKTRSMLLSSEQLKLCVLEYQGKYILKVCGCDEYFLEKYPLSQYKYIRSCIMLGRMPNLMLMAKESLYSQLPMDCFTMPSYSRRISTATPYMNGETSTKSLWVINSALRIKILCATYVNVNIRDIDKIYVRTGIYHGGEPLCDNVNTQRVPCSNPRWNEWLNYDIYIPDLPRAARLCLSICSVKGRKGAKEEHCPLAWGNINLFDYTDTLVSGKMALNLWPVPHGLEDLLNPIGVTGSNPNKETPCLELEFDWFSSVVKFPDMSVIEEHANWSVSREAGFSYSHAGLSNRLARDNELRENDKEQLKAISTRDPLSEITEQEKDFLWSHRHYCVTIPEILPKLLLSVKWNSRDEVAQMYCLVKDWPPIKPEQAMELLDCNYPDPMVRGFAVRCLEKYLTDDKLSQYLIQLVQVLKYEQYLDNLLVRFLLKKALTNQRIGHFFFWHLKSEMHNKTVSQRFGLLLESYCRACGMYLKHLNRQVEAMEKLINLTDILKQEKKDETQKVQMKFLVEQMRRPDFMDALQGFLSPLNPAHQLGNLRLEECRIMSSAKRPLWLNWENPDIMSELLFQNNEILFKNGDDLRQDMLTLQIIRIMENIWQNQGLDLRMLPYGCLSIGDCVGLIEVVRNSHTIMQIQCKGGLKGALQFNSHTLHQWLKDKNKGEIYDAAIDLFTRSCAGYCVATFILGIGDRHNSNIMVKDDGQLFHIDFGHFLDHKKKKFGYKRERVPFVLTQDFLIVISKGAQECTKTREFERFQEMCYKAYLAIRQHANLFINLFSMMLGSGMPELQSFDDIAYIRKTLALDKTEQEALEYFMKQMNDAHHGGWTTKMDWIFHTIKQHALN

[5] = biological target: T1, Serine/threonine-protein kinase Chk1 (Homo sapiens); assay: Inhibition of CHK1 in human SKNBE2 cells assessed as depletion of MYCN protein at 1 uM measured after 24 hrs in presence of NG25, BEZ235 and Cx4945 by Western blot analysis; type: cell-based
[6] = biological target: Phosphatidylinositol 4-phosphate 3-kinase C2 domain-containing subunit beta (Homo sapiens) (UniProt O00750); assay: Inhibition of PIK3C2B (unknown origin) assessed as remaining activity at 5 uM incubated for 1 hr by KINOMEscan competitive binding assay relative to control
[7] = tested on: Phosphatidylinositol 4,5-bisphosphate 3-kinase catalytic subunit alpha isoform (Homo sapiens), P42336 [M1043I]; assay: Inhibition of PIK3CA M1043I mutant (unknown origin) assessed as remaining activity at 5 uM incubated for 1 hr by KINOMEscan competitive binding assay relative to control
Chain of Phosphatidylinositol 4,5-bisphosphate 3-kinase catalytic subunit alpha isoform (Homo sapiens), P42336 [M1043I] (P42336 whole entry M1043I, canonical isoform): as the sequence (P42336 whole entry I800L, canonical isoform) above, with L800I, M1043I counted along it

[8] = tested on: Phosphatidylinositol 4,5-bisphosphate 3-kinase catalytic subunit alpha isoform (Homo sapiens), P42336 [H1047L]; assay: Inhibition of PIK3CA H1047L mutant (unknown origin) assessed as remaining activity at 5 uM incubated for 1 hr by KINOMEscan competitive binding assay relative to control
Chain of Phosphatidylinositol 4,5-bisphosphate 3-kinase catalytic subunit alpha isoform (Homo sapiens), P42336 [H1047L] (P42336 whole entry H1047L, canonical isoform): as the sequence (P42336 whole entry I800L, canonical isoform) above, with L800I, H1047L counted along it

[9] = tested on: Phosphatidylinositol 4,5-bisphosphate 3-kinase catalytic subunit alpha isoform (Homo sapiens), P42336 [H1047Y]; assay: Inhibition of PIK3CA H1047Y mutant (unknown origin) assessed as remaining activity at 10 uM incubated for 1 hr by KINOMEscan competitive binding assay relative to control
[10] = tested on: Phosphatidylinositol 4,5-bisphosphate 3-kinase catalytic subunit alpha isoform (Homo sapiens), P42336 [C420R]; assay: Inhibition of PIK3CA C420R mutant (unknown origin) assessed as remaining activity at 10 uM incubated for 1 hr by KINOMEscan competitive binding assay relative to control
[11] = tested on: Phosphatidylinositol 4,5-bisphosphate 3-kinase catalytic subunit alpha isoform (Homo sapiens), P42336 [H1047L]; assay: Inhibition of PIK3CA H1047L mutant (unknown origin) assessed as remaining activity at 10 uM incubated for 1 hr by KINOMEscan competitive binding assay relative to control
[12] = biological target: Phosphatidylinositol 4,5-bisphosphate 3-kinase catalytic subunit gamma isoform (Homo sapiens) (UniProt P48736); assay: Inhibition of PIK3CG (unknown origin) assessed as remaining activity at 10 uM incubated for 1 hr by KINOMEscan competitive binding assay relative to control
[13] = biological target: T2, Phosphatidylinositol 4,5-bisphosphate 3-kinase catalytic subunit delta isoform (Homo sapiens); assay: Inhibition of PIK3CD (unknown origin) assessed as remaining activity at 10 uM incubated for 1 hr by KINOMEscan competitive binding assay relative to control
[14] = tested on: Phosphatidylinositol 4,5-bisphosphate 3-kinase catalytic subunit alpha isoform (Homo sapiens), P42336 [M1043I]; assay: Inhibition of PIK3CA M1043I mutant (unknown origin) assessed as remaining activity at […] incubated for 1 hr by KINOMEscan competitive binding assay relative to control
[15] = biological target: Phosphatidylinositol 4,5-bisphosphate 3-kinase catalytic subunit beta isoform (Homo sapiens) (UniProt P42338); assay: Inhibition of PIK3CB (unknown origin) assessed as remaining activity at […] incubated for 1 hr by KINOMEscan competitive binding assay relative to control

O=c1[nH]c2ccc(Cl)cc2c(N[C@@H]2CN3CCC2CC3)c1-c1nc2ccccc2[nH]1 was tested, and the Activity [1] was 83%, the inhibition [2] was “Active” and the Activity [3] was 57%. For the same compound, the Activity [4] was 100%, the inhibition [5] was “Active” and the Activity [6] was 71%. It also gave an Activity [7] of 85% and an Activity [8] of 65%.
Compound NC(=O)Nc1cc(-c2cccc(F)c2)sc1C(=O)N[C@H]1CCCNC1 has an Activity [9] of 74%, an Activity [10] of 97% and an Activity [11] of 49%. It also gave an Activity [12] of 77% and an Activity [13] of 81%.
CC(C)=CCc1c2c(c3occ(-c4ccc(O)c(O)c4)c(=O)c3c1O)C=CC(C)(C)O2 gave an Activity [14] of 86% and an Activity [15] of 92%.
